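1) Cells in 96-well plates. 2) Compound, 48 h, 5 concentrations. 3) Linear interpolation between surrounding doses. 4) Unreached endpoint = highest concentration. TGI denotes the concentration required for complete inhibition of growth.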
Assays:
Test in all cases: NCI tumour cell line growth inhibition, 48 h
[1] = system: OVCAR-8 ovarian
[2] = system: OVCAR-4 ovarian
[3] = system: NCI-H226 lung
[4] = system: SN12C renal
[5] = system: OVCAR-3 ovarian
[6] = system: CAKI-1 renal
[7] = system: RXF 393 renal
[8] = system: HCC-2998 colon
[9] = system: SF-295 CNS
[10] = system: HCT-15 colon
[11] = system: HCT-116 colon
[12] = system: HOP-62 NSCLC
[13] = system: SNB-19 CNS
[14] = system: UO-31 renal
[15] = system: PC-3 prostate
[16] = system: HS 578T breast
[17] = system: MCF7 breast

SMILES	TGI [1] [µM]	TGI [2] [µM]	TGI [3] [µM]	TGI [4] [µM]	TGI [5] [µM]	TGI [6] [µM]	TGI [7] [µM]	TGI [8] [µM]	TGI [9] [µM]	TGI [10] [µM]	TGI [11] [µM]	TGI [12] [µM]	TGI [13] [µM]	TGI [14] [µM]	TGI [15] [µM]	TGI [16] [µM]	TGI [17] [µM]
Cc1nc(-n2nc(-c3ccccc3)cc2-c2ccccc2)sc1C(=O)/C=C/c1ccc(Cl)c(Cl)c1	31.3	81.3	87.6	44.3	54.2	78.7	> 100	> 100	35.7	39.9	> 100	> 100	42.1	23.9	–	–	–
C[C@@H]1O[C@]2(O)[C@@H]3CCCN3S(=O)(=O)CCN2C1=O	> 100	> 100	> 100	> 100	> 100	> 100	> 100	> 100	> 100	> 100	> 100	> 100	> 100	> 100	–	–	–
CC(C)N(C(=O)C12C3C4C1C1C2C3C41I)C(C)C (stereo unspecified)	> 100	> 100	> 100	> 100	> 100	> 100	–	> 100	> 100	–	> 100	–	> 100	> 100	–	–	–
CCN(CC)CC(=O)NC1c2ccccc2Oc2c(C)cccc21 (stereo unspecified)	> 100	> 100	> 100	> 100	–	–	> 100	> 100	–	> 100	> 100	> 100	> 100	> 100	–	–	–
O=C(Cc1ccc([N+](=O)[O-])c([N+](=O)[O-])c1CC(=O)C(=O)Nc1cc(Cl)ccc1Cl)C(=O)Nc1cc(Cl)ccc1Cl	> 100	> 100	> 100	> 100	> 100	> 100	94.7	> 100	> 100	45.1	> 100	> 100	> 100	> 100	–	–	–
CC12C(=C(C#N)C(=N)N1c1ccc(Cl)c(Cl)c1)C=C(O)CC2SCCS(=O)(=O)O (stereo unspecified)	> 100	> 100	> 100	> 100	> 100	> 100	94.7	> 100	> 100	> 100	> 100	> 100	> 100	> 100	–	–	–
CCc1[nH]c(=O)c2oc3cc4ccccc4cc3c2c1C(=O)O	> 10	> 10	> 10	> 10	> 10	–	> 10	> 10	> 10	> 10	> 10	–	> 10	> 10	> 10	> 10	–
CC1(C)OCN(c2ccc(S(N)(=O)=O)cc2)Cn2c1nc1ccccc12	> 100	> 100	> 100	> 100	> 100	–	> 100	> 100	> 100	> 100	> 100	> 100	> 100	> 100	–	–	–
N#C/C(=C\c1cc(O)ccc1O)C(N)=O	> 100	> 100	95.4	> 100	> 100	> 100	86.6	> 100	> 100	> 100	> 100	> 100	> 100	> 100	–	–	–
C#CCNC(=O)NCCCCC(NC(C)=O)C(=O)NCc1ccccc1 (stereo unspecified)	> 100	> 100	> 100	> 100	> 100	> 100	> 100	> 100	> 100	> 100	> 100	> 100	> 100	> 100	–	–	–
[N-]=[N+]=Nc1ccc2c(c1)Sc1ccccc1N2CCCCN1CCN(Cc2ccc(C(=O)c3ccc(CSCC(N)C(=O)O)cc3)cc2)CC1 (stereo unspecified)	–	> 100	35.6	> 100	> 100	67	> 100	59.2	44.5	30.4	29.5	57.3	–	> 100	> 100	–	54.4
Cc1cc(C)c2c(c1)N[S@@](=O)S2	33.2	61.3	38.5	36.7	39	70.8	26.3	> 100	> 100	33	32.8	> 100	> 100	39.4	–	–	–
CC/C(=N/O)c1ccc2[nH]c3c(C)cc([N+](=O)[O-])c(C)c3c2c1	> 100	> 100	> 100	> 100	> 100	> 100	–	> 100	> 100	> 100	> 100	> 100	> 100	> 100	–	–	–
Cc1nc(N)c(-c2ccccc2)s1	> 100	> 100	> 100	> 100	> 100	> 100	> 68.9	> 100	92.4	> 62.1	> 66.8	> 100	> 100	> 100	–	–	–
CSC1=C(C(=O)Nc2ccc(C)cc2)C(N)=NC1=O	> 100	> 100	> 100	–	–	> 100	> 100	> 100	> 100	> 100	> 100	–	> 100	> 100	–	> 100	> 100
COc1ccc2c(c1)[n+](=O)c(C(=O)C/C(=N/NC(=O)C[N+](C)(C)C)C(=O)Nc1cccc(C)c1C)c(C)n2O	> 100	> 100	> 100	> 100	> 100	> 100	> 100	> 100	> 100	> 100	> 100	> 100	> 100	> 100	–	–	–
COc1ccccc1-n1c(N)c2c(C)c(-c3ccccc3)[nH]c2nc1=S	> 100	> 100	> 100	> 100	> 100	> 100	–	> 100	–	> 100	> 100	> 100	> 100	> 100	–	–	–

SMILES	TGI [1] [µM]	TGI [2] [µM]	TGI [3] [µM]	TGI [4] [µM]	TGI [5] [µM]	TGI [6] [µM]	TGI [7] [µM]	TGI [8] [µM]	TGI [9] [µM]	TGI [10] [µM]	TGI [11] [µM]	TGI [12] [µM]	TGI [13] [µM]	TGI [14] [µM]	TGI [15] [µM]	TGI [16] [µM]	TGI [17] [µM]
COc1cc(C2c3cc4c(cc3OC(NCCc3ccccc3)C2C)OCO4)cc(OC)c1OC (stereo unspecified)	> 100	> 47.7	7.43	> 65.3	–	0.939	–	0.85	1.98	> 40.9	18.6	> 70.3	> 100	22.8	–	0.425	15.4
CN(C)/C=N\c1nncc2[nH]cnc12	> 100	> 100	> 100	> 100	> 100	> 100	–	> 100	> 100	> 100	> 100	> 100	–	> 100	> 100	–	> 100
COc1cc2c(cc1O)CN1CCC23C=C[C@@H](O)CC13 (stereo partly specified)	> 100	> 100	> 100	> 100	> 100	> 100	> 100	> 100	> 100	> 100	> 100	> 100	> 100	> 100	–	–	–
CCN(CC)CCC1(C2CCCCC2)CCC(=O)NC1=O (stereo unspecified)	> 100	> 100	> 100	> 100	> 100	> 100	> 100	> 100	> 100	> 100	> 100	> 100	> 100	> 100	–	–	–
CCOC(=O)C(/C(=N\NC(=O)OC)C(=O)Nc1cc(OC)ccc1OC)c1cnc2ccccc2n1 (stereo unspecified)	> 100	> 100	> 100	> 100	–	> 100	> 100	> 100	> 100	> 100	> 100	> 100	–	> 100	–	–	–
COc1cc(C2C(C(=O)Nc3ccc([N+](=O)[O-])cc3)=C(C)NC(C)=C2C(=O)Nc2ccc([N+](=O)[O-])cc2)ccc1O	> 54.2	> 70.8	> 63.2	36.4	55.7	> 86.6	39	40.3	65.7	50.8	30.9	35	> 73.9	46.3	–	–	–
CCOc1ccc(/C=C(\Cl)c2ccc(OC)cc2)cc1	> 100	> 100	> 100	> 100	–	–	> 100	> 100	> 100	> 100	> 100	> 100	> 100	> 100	–	–	–
C[C@@H]1OC2(O)[C@H]3CCCN3S(=O)(=O)CCN2C1=O (stereo partly specified)	> 100	> 100	> 100	> 100	> 100	> 100	> 100	> 100	> 100	> 100	> 100	> 100	> 100	> 100	–	–	–
Cc1cccc(/C=N\NC(=S)N2CCCCC2)n1	0.582	–	0.747	9.38	–	3.62	0.593	> 100	6.58	> 100	0.125	0.525	> 100	26.2	> 100	> 100	–
CCOC(=O)c1cnc2c(ccc3[nH]cccc32)c1=O	> 100	> 100	–	> 100	> 100	–	> 100	> 100	–	> 100	> 100	> 100	> 100	> 100	–	–	–
COC(=O)n1c(C)c(C=O)c2ccc(OC)cc21	> 100	> 100	–	> 100	> 100	87.9	> 100	55.8	69.6	82.7	> 100	60.8	> 100	> 100	> 100	–	88.2
C/C(=N/NC(=O)C[n+]1ccccc1)C(CN(CC(C)C)CC(C)C)C(=O)Nc1ccc(C)cc1C (stereo unspecified)	> 100	> 100	–	> 100	–	–	> 100	> 100	–	–	> 100	> 100	> 100	82.8	–	–	–
CCCCCCCCCCCCCCCCc1c(C(=O)OC)nc(NN)[nH]c1=O	> 50	> 50	–	> 50	> 50	> 50	> 50	> 50	> 50	> 50	> 50	> 50	> 50	> 50	–	–	–
C/C(=N\NC(=S)NC(CCC(=O)O)C(=O)O)c1cnccn1 (stereo unspecified)	> 100	> 100	> 100	> 100	> 100	–	> 100	> 100	> 100	> 100	> 100	> 100	> 100	> 100	–	–	–
CCOC(=O)CCC(NC(=O)c1ccc(N=Cc2nc3ccccc3nc2-c2ccccc2)cc1)C(=O)OCC (stereo unspecified)	> 100	> 100	> 100	> 100	> 100	> 100	> 100	> 100	> 100	> 100	> 100	> 100	> 100	> 100	–	–	–
C[C@@]1(Cc2ccccc2)C(=O)N2[C@@H](CO)C(c3ccccc3)O[C@]2(C)c2ccccc21 (stereo partly specified)	> 100	> 100	> 100	–	> 100	> 100	> 100	–	> 100	> 100	> 100	> 100	> 100	> 100	–	–	–

From PubChem BioAssay (NCI)
